Data from ChEMBL document CHEMBL3102756, “Synthesis and biological evaluation of a series of aminoalkyl-tetralones and tetralols as dual dopamine/serotonin ligands” (Eur J Med Chem, 2014).

Tests used:
[1] = target: T1, 5-hydroxytryptamine receptor 2A (Homo sapiens, UniProt P28223); assay: Displacement of [3H]ketanserin from human 5-HT2A receptor
[2] = target: T1, 5-hydroxytryptamine receptor 2A; conditions: CHO
[3] = target: D(2) dopamine receptor (Homo sapiens) (UniProt P14416); conditions: CHO
Description: Competitive antagonist activity at human D2 receptor expressed in CHO cells assessed as inhibition of cAMP release after 30 mins by HTRF assay

[4] = target: T1, 5-hydroxytryptamine receptor 2A; assay: Binding affinity for 5-HT2A receptor (unknown origin)

T1 sequence (P28223 whole entry): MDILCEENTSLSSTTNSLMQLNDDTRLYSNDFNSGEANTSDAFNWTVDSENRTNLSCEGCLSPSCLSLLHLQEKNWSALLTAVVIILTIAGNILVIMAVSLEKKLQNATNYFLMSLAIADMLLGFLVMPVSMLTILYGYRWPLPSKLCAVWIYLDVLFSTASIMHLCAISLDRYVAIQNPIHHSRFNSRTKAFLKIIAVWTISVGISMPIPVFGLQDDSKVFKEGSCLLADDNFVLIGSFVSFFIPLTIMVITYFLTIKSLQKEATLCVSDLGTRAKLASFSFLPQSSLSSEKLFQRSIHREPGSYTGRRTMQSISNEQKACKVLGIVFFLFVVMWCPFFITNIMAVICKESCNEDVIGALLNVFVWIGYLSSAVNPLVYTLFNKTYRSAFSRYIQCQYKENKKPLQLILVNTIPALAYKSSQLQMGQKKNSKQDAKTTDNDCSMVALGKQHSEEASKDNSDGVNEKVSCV
Sequence of D(2) dopamine receptor (Homo sapiens) (P14416 whole entry): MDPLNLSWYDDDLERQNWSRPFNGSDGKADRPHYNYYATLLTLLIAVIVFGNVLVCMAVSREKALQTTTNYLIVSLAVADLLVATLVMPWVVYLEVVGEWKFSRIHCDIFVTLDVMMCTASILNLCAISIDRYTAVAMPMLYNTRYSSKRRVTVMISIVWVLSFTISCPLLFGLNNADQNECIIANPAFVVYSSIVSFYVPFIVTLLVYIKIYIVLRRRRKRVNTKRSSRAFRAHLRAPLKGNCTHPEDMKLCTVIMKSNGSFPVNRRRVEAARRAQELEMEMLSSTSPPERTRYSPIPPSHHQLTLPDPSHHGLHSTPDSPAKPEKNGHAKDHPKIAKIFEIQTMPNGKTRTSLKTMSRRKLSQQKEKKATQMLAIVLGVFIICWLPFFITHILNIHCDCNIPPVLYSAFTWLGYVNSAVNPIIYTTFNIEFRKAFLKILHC

Row | SMILES | Ki [1] | pKb [2] | pKb [3] | Ki [4]
1 | O=C1CC(CN2CCC(C(=O)c3ccc(F)cc3)CC2)Cc2cc(-c3ccccc3)ccc21 (stereo unspecified) | 631 nM |  |  | 
2 | O=C1CC(CN2CCC(c3noc4cc(F)ccc34)CC2)Cc2cc(-c3ccccc3)ccc21 (stereo unspecified) | 15.8 nM | 7.84 | 7.55 | 
3 | Nc1ccc2c(c1)C(O)C(CCN1CCC(c3noc4cc(F)ccc34)CC1)CC2 (stereo unspecified) | 6.61 nM |  |  | 
4 | Nc1ccc2c(c1)C(=O)C(CCN1CCC(c3noc4cc(F)ccc34)CC1)CC2 (stereo unspecified) | 5.01 nM | 8.76 | 7.53 | 
5 | COc1ccccc1N1CCN(CCC2CCc3ccc(N)cc3C2=O)CC1 (stereo unspecified) | 42.7 nM |  |  | 
6 | COc1ccccc1N1CCN(CCC2CCc3ccc([N+](=O)[O-])cc3C2=O)CC1 (stereo unspecified) | 794 nM |  |  | 

Now from value to compound:

Row | Ki [1] | pKb [2] | pKb [3] | Ki [4] | SMILES
7 | 63.1 nM |  |  |  | CC(=O)c1ccc2c(c1)CC(CN1CCC(C(=O)c3ccc(F)cc3)CC1)CC2=O (stereo unspecified)
8 | 31.6 nM |  |  |  | CC(=O)c1ccc2c(c1)CC(CN1CCC(c3noc4cc(F)ccc34)CC1)CC2=O (stereo unspecified)
9 | 4.47 nM | 7.82 | 6.32 |  | Nc1ccc2c(c1)C(O)C(CCN1CCC(C(=O)c3ccc(F)cc3O)CC1)CC2 (stereo unspecified)
10 | 11 nM |  |  |  | O=[N+]([O-])c1ccc2c(c1)C(O)C(CCN1CCC(c3noc4cc(F)ccc34)CC1)CC2 (stereo unspecified)
11 | 513 nM |  |  |  | COc1ccccc1N1CCN(CCC2CCc3ccc([N+](=O)[O-])cc3C2O)CC1 (stereo unspecified)
12 | 158 nM |  |  |  | COc1ccccc1N1CCN(CCC2CCc3ccc(N)cc3C2O)CC1 (stereo unspecified)
13 | 19.1 nM |  |  |  | O=C1c2cc([N+](=O)[O-])ccc2CCC1CCN1CCC(c2noc3cc(F)ccc23)CC1 (stereo unspecified)
14 |  |  |  | 2.75 nM | O=C1CC(CN2CCC(c3noc4cc(F)ccc34)CC2)Cc2ccccc21 (stereo unspecified)
15 | 23.4 nM |  |  |  | Nc1ccc2c(c1)C(=O)C(CCN1CCC(C(=O)c3ccc(F)cc3O)CC1)CC2 (stereo unspecified)
